Values quoted from earlier work in patent US20130274331A1, “Method for Treating Hyperuricemia in Patients with Gout Using Halofenate or Halofenic Acid and an Anti-Inflammatory Agent” (Metabolex, Inc., priority 2012, published 2013).

Details: gout patients; monotherapy at 40, 80, 120, 160 and 240 mg/day

Question: With `O=c1[nH]cnc2c(CN3C[C@H](CO)[C@@H](O)C3)c[nH]c12` [BCX4208, 7-(((3R,4R)-3-hydroxy-4-(hydroxymethyl)pyrrolidin-1-yl)methyl)-3H-pyrrolo[3,2-d]pyrimidin-4(5H)-one] as the compound, how does the “reduction of serum uric acid” value read?
Answer: rapidly and significantly reduced serum uric acid
